According to patent publication US11731985B2, “Compositions and methods for treating cancer” (Hb Therapeutics Inc., priority 2018, dated 2023):
pIC50: −log10 of the molar value.

Experiments:
LN229 cells = test: Cell viability assay, LN229 cells; format: cell-based, human; conditions: Homo sapiens, LN-229, LN229 cells, read-out: Inhibition of Cancer Cell Growth (IC50)
Protocol: Each of the compounds was used to treat the cancer LN229 cells and examined first by western and dot blot assays for the degradation of SUMO1 protein and then by cell viability assay for the IC50 values of anticancer activity.
(§1) LN229 cell were treated with a series of dilutions of CPD1 and examined by cell viability assay for cell growth inhibition (FIG. 2B). […] Therefore, CPD1 acts as the degrader of SUMO1 protein and inhibitor of SUMO1 conjugation in cancer cells.

colon HCT116 xenografts = test: Subcutaneous xenografts of colon HCT116 cancer cell line in nude mice; format: in vivo
Protocol: (§2) For the therapeutic effects of the compounds, we examined the effects of CPD1 and CPD24 on various types of cancer xenografts in mice. […] NOD/SCID mice bearing intracranial brain xenografts of glioblastoma LN229 cell line were treated with CPD1.

SUMO1 [1] = target: SUMO1 (Homo sapiens, UniProt P63165); test: Western and dot blot assays for SUMO1 conjugation and SUMO1 protein levels in LN229 cells; format: cell-based; design: analyzed by western blotting for detection of the conjugate and free form of SUMO1 protein and dot blotting for total levels of SUMO1 protein; endogenous in cells; host or cells: LN229 glioblastoma cells; conditions: LN229 cells
SUMO1 (Homo sapiens, UniProt P63165), sequence (P63165 1-97 limits assumed): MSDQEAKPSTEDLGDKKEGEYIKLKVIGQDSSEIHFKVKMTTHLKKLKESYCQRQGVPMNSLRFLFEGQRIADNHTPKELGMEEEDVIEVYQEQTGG
Protocol: FIG. 2A illustrates how the glioblastoma LN229 cell line was treated with each of compounds of the National Cancer Institute (NCI) Diversity Set IV library and analyzed by western blot assays using SUMO1, SUMO2/3, UB and β-actin antibodies.
as §1
(§3) The non-conjugated Flag-tagged SUMO1 (Flag-SUMO1-GV) and the HA-tagged wild type (WT) UB (HA-UB-WT) were co-transfected in LN229 cells.

[2] = system: colon cancer PDX (L1206F); test: Patient derived xenograft of colon cancer (L1206F); format: in vivo, mice
Source text: (§4) The left two graphs show data for compounds CPD1 and the middle two graphs show data for CPD24 treatment of colon cancer PDX (L1206F). […] The right two graphs show data for compound CPD1 and CPD24 treatment of lung cancer PDX (L1102F). […] The significance of **P<0.01, and ***P<0.001 was statistically analyzed.
as §2

lung A549 xenografts = test: Subcutaneous xenografts of lung A549 cancer cell line in nude mice; format: in vivo
Protocol: as §2

[3] = system: intracranial glioblastoma LN229 xenografts; test: Intracranial brain xenografts of glioblastoma LN229 in NOD/SCID mice, Kaplan Meier survival; format: in vivo; conditions: intracranial LN229, log rank test
Protocol: as §2

lung cancer PDX (L1102F) = test: Patient derived xenograft of lung cancer (L1102F); format: in vivo, mice
Source text: as §4, §2

[4] = system: NCI-60 panel cancer cell lines; test: Cell growth analysis of NCI-60 panel cancer cell lines; format: cell-based, human; conditions: FIG. 5C
SUMO1 [5] = test: Ubiquitination of Flag-SUMO1 (immunoprecipitation, western blot) in co-transfected LN229 cells; format: cell-based, human; conditions: LN229 cells co-transfected with Flag-SUMO1-GV and HA-UB-WT
Source text: as §3

log P = format: physicochemical
Source text: (§5) For example, without limitation, pharmaceutical compositions of this compound (CPD1) can comprise a molecular weight 348 g/mol and the log P value 3.7.

[6] = Pharmacokinetics, tissue distribution and toxicity in mice, intraperitoneal administration; format: in vivo
Source text: as §5

[7] = Tolerability across all xenograft mice; format: in vivo; conditions: over the treatment period
Protocol: as §2

## O=C(Nc1ccc(Cl)c([N+](=O)[O-])c1)Nc1nc2ccccc2s1 [Compound 1]
LN229 cells
  pIC50: ≥ 5.30
Colon HCT116 xenografts
  xenograft progression: significantly suppressed xenograft progression
SUMO1 [1]; western and dot blotting
  conjugated, free form and total levels of SUMO1 protein: reduces the conjugated, free form and total levels of SUMO1 proteins
SUMO1 [1]; western blot, FIG. 2A
  selectivity of inhibition of conjugation (SUMO1, SUMO2/3, UB): selectively inhibiting the conjugation of SUMO1 but not SUMO2/3 or UB
[2]
  body weight of mice: had no effects on the body weight of mice
  tumor growth (tumor sizes): significantly inhibits the tumor growth of the colon cancer PDXs
Lung A549 xenografts
  xenograft progression: significantly suppressed xenograft progression
[3]
  survival of xenograft mice: increases the survival of xenograft mice
Lung cancer PDX (L1102F)
  mouse body weight: no effects of the treatment on mouse body weight
Lung cancer PDX (L1102F); CPD24 25 and 50 mg/kg, CPD1 100 mg/kg
  PDX growth: markedly inhibits the PDX growth
[4]
  cell growth of NCI-60 panel cancer cell lines: significantly inhibits the cell growth of breast, colon, lung, kidney, ovarian, prostate, skin (melanocytic) and blood (leukemic) cancers
SUMO1 [5]
  poly-ubiquitination of SUMO1 protein: results in the poly-ubiquitination of SUMO1 protein
Log P
  logP: 3.7
[6]; distribution in brain tumors
  blood brain barrier crossing: can cross the blood brain barrier
[6]; mice, intraperitoneal administration
  toxicity to normal tissues, side effects: no toxicity to normal tissues or side effects on mice
[6]; mouse cancer xenografts, intraperitoneal administration
  pharmacokinetics and tissue distribution: sufficient for degrading SUMO1 protein in mouse cancer xenografts
[7]
  tolerability, clinical signs: well tolerated over the treatment period with no clinical signs of lethargy, ataxia, paralysis, seizure or weight loss
